Test results taken from patent US20240050735A1, “SYSTEMS AND METHODS FOR TREATING AND INHIBITING WOUND INFECTIONS” (priority 2020, published 2024).
Read-outs that look alike come from different tables or passages of the source.

Experiments:
[1] = format: in vitro ADME; settings: for concentration delivered to wound tissues: 5 mg mL^−1 DAP loaded
Experimental: Investigations were also performed to determine the iontophoretic antibiotic delivery efficiency of the HIC-based biofilm treatment system 100 using high current intensities. These investigations included an ex vivo antibiotic delivery study using the same MRSA biofilm-infected porcine skin wound model as in the previous section. Vancomycin (VAN) was used here as a model drug, since it is the FDA-approved antibiotic and is the clinical gold standard for combating S. aureus infections.
First the VAN delivery efficiency was tested at different current intensities (from 0 mA cm^−2 (passive diffusion) to 75 mA cm^−2) applied by the HIC-based biofilm treatment system 100 for 1 hour. The drug/buffer chamber 114 of the working device 104 was loaded with 1 mg mL^−1 VAN in this study. The anode side was used as the working device 104 because VAN required anodal iontophoresis. The accumulated concentration of VAN in biofilm infected skin wound was measured immediately after iontophoresis using high performance liquid chromatography (HPLC). […] When 75 mA cm^−2 was used, the VAN concentration in wound tissue increased to 4.5±0.52 mg g^−1. The VAN concentration in wound tissue after passive diffusion, 0.5 mA cm^−2, and 19 mA cm^−2 iontophoresis were also measured. However, they could not be distinguished from the background interference of the residual biofilm components, so no quantitative results were obtained (data not shown). Importantly, the VAN concentration delivered by 75 mA cm^−2 iontophoresis for 1 hour exceeded the minimal biofilm eradication concentration (MBEC) of VAN reported for MRSA biofilm, which was 4 mg g^−1. The ability to deliver a lethal antibiotic concentration into biofilm-infected wounds within a short period of time was critical for biofilm treatment as it would minimize the chance for bacteria to develop adaptive tolerance.
The fetal pig skin samples (approximately 30×30 mm) were immersed in 10% (v/v) bleach for 5 minutes after hair removal. Then, skin samples were sterilized in 70% ethanol for 30 minutes. The surface of skin sample was further cleaned by 10% povidone-iodine and 70% isopropanol to prevent contamination. A 6-mm disposable biopsy punch was used to create an excisional wound. Samples were put into sterile 10-cm petri-dishes filled with sterile PBS (6 mL). The wound was then inoculated with 1×10^8 CFU mL^−1 MRSA bacteria solution (20 μL). The bacteria were allowed to grow in a 37° C. Heratherm™ compact microbiological incubator (ThermoFischer Scientific™, Waltham, Mass., USA) for 48 hours to form mature biofilms.
To evaluate the antibiotic delivery efficacy of VAN by high-intensity current, biofilm infected fetal pig skin wound was used. The DAP test setup was same as that of VAN, except no PBS chamber 122 was used. Instead, the inner surface of the skin wound contacted directly to the hydrogel 120 of the counter device 106. To evaluate the effect of electrical current intensity on the drug delivery efficacy, different current intensities from 0 to 75 mA cm^−2 were applied. To evaluate the effect of loading concentration of antibiotics, different concentrations of VAN and DAP from 1 mg mL^−1 to 10 mg mL^−1 were used. Since VAN is […] and DAP is negatively charged under physiological environment, anode HIC-based device was placed facing biofilm for VAN iontophoresis, and cathode HIC-based device was placed facing biofilm for DAP iontophoresis. Samples were collected immediately after different treatments. The concentrations of antibiotics delivered into skin wound samples were measured by high-performance liquid chromatography (HPLC). The permeation coefficient (Pc, cm s^−1) was then calculated (Pc=J/C, where J is antibiotic delivery flux in tissue samples (μg (cm^2s)^−1, C is the loading concentration of antibiotic solution (μg m L^−1)). […]

HDFa cells = test: Cell toxicity of high concentration of antibiotics, LIVE/DEAD stain; format: cell-based, human; settings: 20 mg mL^−1 DAP, 24 hour incubation
Experimental: (§1) To evaluate the cell toxicity of the high concentration of antibiotics, HaCaT cells and HDFa cells were used. 2×10^4 HaCat cells and 2×10^3 HDFa cells were seeded in each well of a 96-well plate. After being cultured in an incubator under 37° C. and 5% CO2 for 24 hours, 4.5 mg mL^−1 VAN and 20 mg mL^−1 DAP were added to the culture media, respectively. Both HaCat cells and HDFa cells were treated by VAN for two days, and exposed to DAP for one day, respectively. The cell toxicity of the two cells at the end time points were evaluated by LIVE/DEAD stain and visualized by a confocal laser scanning microscope (CLSM, LSM 710, Zeiss, Germany).

HaCaT cells = test: as above; format: cell-based, human; settings: 20 mg mL^−1 DAP, 24 hour incubation
Experimental: as §1

planktonic MRSA = test: Time-killing test on planktonic MRSA in stationary phase; format: cell-based, Methicillin-resistant S. aureus (MRSA) USA300; settings: 5 mg mL^−1 DAP, within 24 hours
Experimental: MRSA bacteria was cultured in LB media in a 37° C. water shaking bath overnight to reach the concentration of 1×10^8 CFU mL^−1. Then, they were diluted to 10^5 CFU mL^−1 in 96-well plates by adding different concentrations of VAN solutions. After incubation for 24 hours without shaking, MIC of VAN to inhibit MRSA growth was measured by a Biotek Synergy H1 hybrid multi-mode microplate reader (BioTek, Winooski, Vt., USA) at OD600. To evaluate the killing time of VAN to bacteria in stationary phase (1×10^8 CFU mL^−1), VAN powder was added to bacteria solution to obtain concentration of 1 mg mL^−1, 3 mg mL^−1, 5 mg mL^−1, and 10 mg mL^−1, respectively, while remaining MRSA concentration of 1×10^8 CFU mL^−1. After incubation in a 37° C. water bath for 1 day, 2 days, 3 days and 4 days, the CFU of MRSA cells was tested by the standard plate spread counting assay, respectively. The time-killing tests of DAP with different concentrations (0.1 mg mL^−1, 0.5 mg mL^−1, 1 mg mL^−1, and 5 mg mL^−1) on MRSA planktonic cells were also performed, with the incubation time up to 24 hours.

[2] = system: S. aureus persister cells; settings: even at 100×MIC; cited from earlier work
[3] = format: in vitro ADME, porcine; settings: for distribution in wound tissue (fluorescence): 1 mg mL^−1 FD-4
Experimental: It was determined that high-intensity iontophoresis using the HIC-based biofilm treatment system 100 was able to enhance the VAN penetration depth in wound tissues. A high penetration depth would allow effective treatment of bacteria in deeper layers of clinical biofilm infections to minimize biofilm reformation. A fluorescently labeled dextran (M.W.=4 kDa, FD-4) was used to visualize drug distribution in wound tissue immediately after iontophoresis in this test. […] All wound tissues were dehydrated by acetone before sectioning to minimize FD-4 mobility during sample processing. When passive diffusion and 0.5 mA cm^−2 were applied, the fluorescence was indiscernible under microscope. […] This penetration depth was higher than the typical thickness of in vivo S. aureus biofilm infections in skin wounds (150 μm above wound surface and 190 μm below wound surface).
FD-4 penetration and distribution in the MRSA biofilm infected skin wound was evaluated by cryo-section and fluorescent microscopy. Briefly, samples were collected by 8-mm disposable biopsy punch and dehydrated in acetone for 10 to 30 minutes. After being air dried for another 10 to 30 minutes, the samples were embedded in tissue freezing medium (OCT) and sectioned to obtain 10 μm section under −20 ° C. Section samples were then observed under a fluorescent microscope (DMI 6000 B, Leica, Bannockburn, Ill., USA).

S. gordonii biofilms = settings: cited from earlier work

CCCCCCCCCC(=O)N[C@@H](Cc1c[nH]c2ccccc12)C(=O)N[C@H](CC(N)=O)C(=O)N[C@@H](CC(=O)O)C(=O)N[C@@H]1C(=O)NCC(=O)N[C@@H](CCCN)C(=O)N[C@@H](CC(=O)O)C(=O)N[C@H](C)C(=O)N[C@@H](CC(=O)O)C(=O)NCC(=O)N[C@H](CO)C(=O)N[C@@H]([C@H](C)CC(=O)O)C(=O)N[C@@H](CC(=O)c2ccccc2N)C(=O)O[C@@H]1C [DAP, Daptomycin]
Pc at 75 mA cm^−2 higher than 0.5 mA cm^−2 iontophoresis ([1]; 5 mg mL^−1 DAP): 10.1 times | Pc at 75 mA cm^−2 higher than passive diffusion ([1]; 5 mg mL^−1 DAP): 12.0 times | permeation coefficient (Pc) ([1]; 0.5 mA cm^−2 iontophoresis, 5 mg mL^−1 DAP): 15.7±3.37 ×10^−6 cm s^−1 | concentration delivered into wound tissue ([1]; 75 mA cm^−2, 1 hour, 1 mg mL^−1 DAP loaded): 3.3 ± 1.49 mg/g | concentration delivered to wound tissues ([1]; 75 mA cm^−2, 1 hour): 19.9 ± 1.45 mg/g | concentration delivered into wound tissue ([1]; 75 mA cm^−2, 1 hour, 10 mg mL^−1 DAP loaded): 32.8 ± 5.68 mg/g | permeation coefficient (Pc) ([1]; 75 mA cm^−2 iontophoresis, 5 mg mL^−1 DAP): 158.3±11.18 ×10^−6 cm s^−1 | permeation coefficient (Pc) ([1]; passive diffusion, 5 mg mL^−1 DAP): 13.2±3.15 ×10^−6 cm s^−1 | concentration delivered to wound tissues ([1]; passive diffusion, 1 hour): 1.7 ± 0.59 mg/g | viability of skin cells (HDFa cells): did not have significant impact | viability of skin cells (HaCaT cells): did not have significant impact | bacterial count after incubation (from 10^8 CFU g^−1) (planktonic MRSA): 0 CFU g^−1 | killing of S. aureus persister cells [2]: not capable of killing

Fluorescein isothiocyanate (FITC) labeled dextran-4 kDa [FD-4]
distribution in wound tissue (fluorescence) ([3]; 0.5 mA cm^−2, 1 hour): indiscernible | distribution in wound tissue (fluorescence) ([3]; 19 mA cm^−2, 1 hour): fluorescence could only be seen near the upper boundary of the wound tissue | penetration depth (entire tissue thickness, after dehydration) ([3]; 75 mA cm^−2, 1 hour): 182.4±12.62 μm | penetration depth (entire tissue thickness, before dehydration) ([3]; 75 mA cm^−2, 1 hour): 955.7±192.56 μm | distribution in wound tissue (fluorescence) ([3]; 75 mA cm^−2, 1 hour): penetrated the entire thickness of the tissue sample | distribution in wound tissue (fluorescence) ([3]; passive diffusion, 1 hour): indiscernible

gentamicin
biofilm bacterial count reduction (S. gordonii biofilms; 0.4 mA cm^−2 with 2 μg mL^−1 gentamicin, 24 hours): 4.3 log10 scales | bacteria count reduction (S. gordonii biofilms; antibiotic alone): 0.8 log10 scale
